Measured values from PubChem BioAssay (NCI).
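Each compound was tested at five concentrations against cells in 96-well plates for 48 hours. TGI marks complete inhibition of growth.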

Legend:
Assay in all cases: DTP human tumour cell line panel, 48 h
MOLT-4 leukemia = tested on: MOLT-4 leukemia
RXF 393 renal = tested on: RXF 393 renal
SK-OV-3 ovarian = tested on: SK-OV-3 ovarian
UACC-62 melanoma = tested on: UACC-62 melanoma
SF-539 CNS = tested on: SF-539 CNS
SNB-19 CNS = tested on: SNB-19 CNS
CCRF-CEM leukemia = tested on: CCRF-CEM leukemia
IGROV1 ovarian = tested on: IGROV1 ovarian
A549 NSCLC = tested on: A549 NSCLC
HL-60(TB) leukemia = tested on: HL-60(TB) leukemia
SNB-75 CNS = tested on: SNB-75 CNS
A498 renal = tested on: A498 renal
HOP-62 NSCLC = tested on: HOP-62 NSCLC
M19-MEL melanoma = tested on: M19-MEL melanoma
LOX IMVI melanoma = tested on: LOX IMVI melanoma
SK-MEL-28 melanoma = tested on: SK-MEL-28 melanoma
RPMI-8226 leukemia = tested on: RPMI-8226 leukemia
U251 CNS = tested on: U251 CNS
TK-10 renal = tested on: TK-10 renal
LXFL 529 NSCLC = tested on: LXFL 529 NSCLC
COLO 205 colon = tested on: COLO 205 colon
SN12C renal = tested on: SN12C renal
CAKI-1 renal = tested on: CAKI-1 renal
SK-MEL-5 melanoma = tested on: SK-MEL-5 melanoma
M14 melanoma = tested on: M14 melanoma
DMS 273 small cell lung = tested on: DMS 273 small cell lung
KM20L2 colon = tested on: KM20L2 colon
HCT-15 colon = tested on: HCT-15 colon
UACC-257 melanoma = tested on: UACC-257 melanoma
NCI-H23 lung = tested on: NCI-H23 lung
XF 498 CNS = tested on: XF 498 CNS
EKVX NSCLC = tested on: EKVX NSCLC
ACHN renal = tested on: ACHN renal
HOP-18 NSCLC = tested on: HOP-18 NSCLC
OVCAR-8 ovarian = tested on: OVCAR-8 ovarian
786-0 renal = tested on: 786-0 renal
SF-295 CNS = tested on: SF-295 CNS
NCI-H460 lung = tested on: NCI-H460 lung
HCC-2998 colon = tested on: HCC-2998 colon
K-562 leukemia = tested on: K-562 leukemia
SW-620 colon = tested on: SW-620 colon
OVCAR-4 ovarian = tested on: OVCAR-4 ovarian
HCT-116 colon = tested on: HCT-116 colon
OVCAR-3 ovarian = tested on: OVCAR-3 ovarian
HT29 colon = tested on: HT29 colon
DLD-1 colon = tested on: DLD-1 colon
DMS 114 small cell lung = tested on: DMS 114 small cell lung
NCI-H522 lung = tested on: NCI-H522 lung
KM12 colon = tested on: KM12 colon
HOP-92 NSCLC = tested on: HOP-92 NSCLC
SK-MEL-2 melanoma = tested on: SK-MEL-2 melanoma
UO-31 renal = tested on: UO-31 renal
NCI-H226 lung = tested on: NCI-H226 lung
MALME-3M melanoma = tested on: MALME-3M melanoma
OVCAR-5 ovarian = tested on: OVCAR-5 ovarian
SF-268 CNS = tested on: SF-268 CNS
SR leukemia = tested on: SR leukemia

## CC(C)(C)c1cc(COc2c3sc(=S)sc3c(OCc3cc(C(C)(C)C)cc(C(C)(C)C)c3)c3sc(=S)sc23)cc(C(C)(C)C)c1
MOLT-4 leukemia
  TGI: > 100 µM
RXF 393 renal
  TGI: > 100 µM
SK-OV-3 ovarian
  TGI: > 100 µM
UACC-62 melanoma
  TGI: > 100 µM
SF-539 CNS
  TGI: > 100 µM
SNB-19 CNS
  TGI: > 100 µM
CCRF-CEM leukemia
  TGI: > 100 µM
IGROV1 ovarian
  TGI: > 100 µM
A549 NSCLC
  TGI: > 100 µM
HL-60(TB) leukemia
  TGI: > 100 µM
SNB-75 CNS
  TGI: > 100 µM
A498 renal
  TGI: > 100 µM
HOP-62 NSCLC
  TGI: > 100 µM
M19-MEL melanoma
  TGI: > 100 µM
LOX IMVI melanoma
  TGI: > 100 µM
SK-MEL-28 melanoma
  TGI: > 100 µM
RPMI-8226 leukemia
  TGI: > 100 µM
U251 CNS
  TGI: > 100 µM
TK-10 renal
  TGI: > 100 µM
LXFL 529 NSCLC
  TGI: > 100 µM
COLO 205 colon
  TGI: > 100 µM
SN12C renal
  TGI: > 100 µM
CAKI-1 renal
  TGI: > 100 µM
SK-MEL-5 melanoma
  TGI: > 100 µM
M14 melanoma
  TGI: > 100 µM
DMS 273 small cell lung
  TGI: > 100 µM
KM20L2 colon
  TGI: > 100 µM
HCT-15 colon
  TGI: > 100 µM
UACC-257 melanoma
  TGI: > 100 µM
NCI-H23 lung
  TGI: > 100 µM
XF 498 CNS
  TGI: > 100 µM
EKVX NSCLC
  TGI: > 100 µM
ACHN renal
  TGI: > 100 µM
HOP-18 NSCLC
  TGI: > 100 µM
OVCAR-8 ovarian
  TGI: > 100 µM
786-0 renal
  TGI: > 100 µM
SF-295 CNS
  TGI: > 100 µM
NCI-H460 lung
  TGI: > 100 µM
HCC-2998 colon
  TGI: > 100 µM
K-562 leukemia
  TGI: > 100 µM
SW-620 colon
  TGI: > 100 µM
OVCAR-4 ovarian
  TGI: > 100 µM
HCT-116 colon
  TGI: > 100 µM
OVCAR-3 ovarian
  TGI: > 100 µM
HT29 colon
  TGI: > 100 µM
DLD-1 colon
  TGI: > 100 µM

## Cc1ccc(-n2c(=S)[nH]c3ccc(Br)cc3c2=O)cc1
MOLT-4 leukemia
  TGI: > 100 µM
RXF 393 renal
  TGI: > 100 µM
SF-539 CNS
  TGI: > 100 µM
DMS 114 small cell lung
  TGI: > 100 µM
SNB-19 CNS
  TGI: > 100 µM
NCI-H522 lung
  TGI: > 100 µM
KM12 colon
  TGI: > 100 µM
IGROV1 ovarian
  TGI: > 100 µM
A549 NSCLC
  TGI: > 100 µM
HL-60(TB) leukemia
  TGI: > 100 µM
SNB-75 CNS
  TGI: > 100 µM
A498 renal
  TGI: > 100 µM
HOP-62 NSCLC
  TGI: > 100 µM
M19-MEL melanoma
  TGI: > 100 µM
HOP-92 NSCLC
  TGI: > 100 µM
LOX IMVI melanoma
  TGI: > 100 µM
RPMI-8226 leukemia
  TGI: > 100 µM
U251 CNS
  TGI: > 100 µM
TK-10 renal
  TGI: > 100 µM
SK-MEL-2 melanoma
  TGI: > 100 µM
LXFL 529 NSCLC
  TGI: > 100 µM
COLO 205 colon
  TGI: > 100 µM
SN12C renal
  TGI: > 100 µM
UO-31 renal
  TGI: > 100 µM
NCI-H226 lung
  TGI: > 100 µM
KM20L2 colon
  TGI: > 100 µM
HCT-15 colon
  TGI: > 100 µM
UACC-257 melanoma
  TGI: > 100 µM
NCI-H23 lung
  TGI: > 100 µM
XF 498 CNS
  TGI: > 100 µM
EKVX NSCLC
  TGI: > 100 µM
ACHN renal
  TGI: > 100 µM
HOP-18 NSCLC
  TGI: > 100 µM
OVCAR-8 ovarian
  TGI: > 100 µM
MALME-3M melanoma
  TGI: > 100 µM
786-0 renal
  TGI: > 100 µM
SF-295 CNS
  TGI: > 100 µM
NCI-H460 lung
  TGI: > 100 µM
HCC-2998 colon
  TGI: > 100 µM
K-562 leukemia
  TGI: > 100 µM
SW-620 colon
  TGI: > 100 µM
OVCAR-5 ovarian
  TGI: > 100 µM
SF-268 CNS
  TGI: > 100 µM
OVCAR-4 ovarian
  TGI: > 100 µM
SR leukemia
  TGI: > 100 µM
HCT-116 colon
  TGI: > 100 µM
OVCAR-3 ovarian
  TGI: > 100 µM
HT29 colon
  TGI: > 100 µM
DLD-1 colon
  TGI: > 100 µM

## O=C1OC(CC(=O)c2ccc(Cl)cc2)C(Cl)=C1Cl (stereo not given)
MOLT-4 leukemia
  TGI: > 100 µM
SK-OV-3 ovarian
  TGI: > 100 µM
UACC-62 melanoma
  TGI: > 100 µM
SF-539 CNS
  TGI: > 100 µM
DMS 114 small cell lung
  TGI: > 100 µM
SNB-19 CNS
  TGI: > 100 µM
NCI-H522 lung
  TGI: > 100 µM
CCRF-CEM leukemia
  TGI: > 100 µM
KM12 colon
  TGI: > 100 µM
IGROV1 ovarian
  TGI: > 100 µM
A549 NSCLC
  TGI: > 100 µM
HL-60(TB) leukemia
  TGI: 76.9 µM
SNB-75 CNS
  TGI: > 100 µM
A498 renal
  TGI: > 100 µM
HOP-62 NSCLC
  TGI: > 100 µM
M19-MEL melanoma
  TGI: > 100 µM
HOP-92 NSCLC
  TGI: > 100 µM
SK-MEL-28 melanoma
  TGI: > 100 µM
RPMI-8226 leukemia
  TGI: > 100 µM
U251 CNS
  TGI: > 100 µM
TK-10 renal
  TGI: > 100 µM
SK-MEL-2 melanoma
  TGI: > 100 µM
LXFL 529 NSCLC
  TGI: > 100 µM
COLO 205 colon
  TGI: > 100 µM
SN12C renal
  TGI: > 100 µM
CAKI-1 renal
  TGI: > 100 µM
SK-MEL-5 melanoma
  TGI: > 100 µM
M14 melanoma
  TGI: > 100 µM
UO-31 renal
  TGI: > 100 µM
DMS 273 small cell lung
  TGI: > 100 µM
NCI-H226 lung
  TGI: > 100 µM
KM20L2 colon
  TGI: > 100 µM
HCT-15 colon
  TGI: > 100 µM
UACC-257 melanoma
  TGI: > 100 µM
NCI-H23 lung
  TGI: > 100 µM
XF 498 CNS
  TGI: > 100 µM
EKVX NSCLC
  TGI: > 100 µM
ACHN renal
  TGI: > 100 µM
HOP-18 NSCLC
  TGI: > 100 µM
OVCAR-8 ovarian
  TGI: > 100 µM
MALME-3M melanoma
  TGI: > 100 µM
786-0 renal
  TGI: > 100 µM
SF-295 CNS
  TGI: > 100 µM
NCI-H460 lung
  TGI: > 100 µM
HCC-2998 colon
  TGI: > 100 µM
K-562 leukemia
  TGI: > 100 µM
SW-620 colon
  TGI: > 100 µM
OVCAR-5 ovarian
  TGI: > 100 µM
SF-268 CNS
  TGI: > 100 µM
OVCAR-4 ovarian
  TGI: > 100 µM
SR leukemia
  TGI: > 100 µM
HCT-116 colon
  TGI: > 100 µM
OVCAR-3 ovarian
  TGI: > 100 µM
HT29 colon
  TGI: > 100 µM
DLD-1 colon
  TGI: > 100 µM
